Reference: patent US5258397A, “3-Isoxazoyl derivatives endowed with anticonvulsant activity, procedure for their preparation and their pharmaceutical compositions” (Novapharme, priority 1988, dated 1993)

Columns and labels:
SWISS CDl mice [1] = experiment: Electroshock test (anticonvulsant activity); type: in vivo; settings: i.p., % of animals not extending the hind paws; for % protection against Electro shock 30 min.: 1/10 of the LD50, 30 min before electroshock; for % protection against Electro shock 4 h: 1/10 of the LD50, 4 hours before electroshock
Procedure: (§1) The anticonvulsant activity is measured by the electroshock and pentetrazole tests according to the procedure of A. SWINYARD (ADD PROGRAM OF NINCDS BY H. J. KUPFERBERG. E. A. SWINYARD AND G. D. GLADDING in Advances in Epileptology/XIIth Epilepsy International Symposium edited by M. DAM, L. GRAM and J. K. PENRY-RAVEN press N.Y. 1981). The compounds are always administered (at 1/10 of the LD50) by IP injections into SWISS CDl mice (Charles River) of 20-25 g mean weight. All of the compounds are dissolved in a 0.9% solution of sodium chloride or suspended in a 1% solution of carboxymethyl cellulose or tween.
Electroshock test. Groups of 10 mice (1 control group and one treated group) are used for each compound. The treated group receives the compound to be tested by the intraperitoneal route either 30 mn before the electroshock or 4 hours before the electroshock. This latter is applied with the aid of corneal electrodes (50 milliamperes for 0.2 second). Protection is measured by the percentage of animals not extending the hind paws.

SWISS CDl mice [2] = experiment: Seizures induced by pentetrazole (anticonvulsant activity); type: in vivo; settings: i.p., % protected against clonic seizures; for % protection against Pentetrazole 30 mn.: 1/10 of the LD50, 30 mn before pentetrazole 70 mg/kg s.c.; for % protection against Pentetrazole 4 h: 1/10 of the LD50, 4 hours before pentetrazole 70 mg/kg s.c.
Procedure: as §1
Seizures induced by pentetrazole. 70 mg/kg of pentetrazole are injected by the subcutaneous route into groups of 10 mice (1 control group and one treated group) in a volume of 0.2 ml/20 g of body weight. The compounds to be tested are administered either 30 mn before pentetrazole or 4 hours before pentetrazole by the intraperitoneal route. The animals are observed for 30 mn. The number of clonic seizures lasting 5 seconds or more and the percentage of the animals protected against clonic seizures are recorded.

[3] = Determination of the lethal dose 50 (MILLER and TAINTER); settings: in vivo, ip
Procedure: The toxicity is measured by the technique of MILLER and TAINTER by the intraperitoneal route.

mice = experiment: Cerebral protective activity: hypoxia induced by the altitude; type: in vivo; settings: i.p., 30 min before closed chamber at 210 mm Hg
Procedure: Five mice (20 to 25 g) receive an administration of the compound or the liquid vehicle by the intraperitoneal route 30 min. before being placed in a closed chamber in which the atmospheric pressure is reduced to 210 mm Hg. The time of survival (in seconds) is measured from the induction of hypoxia to the cessation of respiratory movements.

Structure (SMILES)	% protection against Electro shock 30 min. (SWISS CDl mice [1]) [%]	% protection against Electro shock 4 h (SWISS CDl mice [1]) [%]	% protection against Pentetrazole 30 mn. (SWISS CDl mice [2]) [%]	% protection against Pentetrazole 4 h (SWISS CDl mice [2]) [%]	LD50 ([3]; intraperitoneal route) [mg/kg]	hypoxia induced by the altitude; increase time of survival as % of controls (mice)	LD50 [3] [mg/kg]
Cc1cccc(C)c1NC(=O)c1cc(CF)on1 [Compound 31, 3-(2,6-dimethylphenylcarbamoyl) 5-fluoromethyl isoxazole]	100	0	0	0	375	–	–
Cc1cccc(C)c1NC(=O)c1cc(C)n(C)n1 [Compound 4, 3-(2,6-dimethylphenylcarbamoyl) 1,5-dimethyl pyrazole]	100	0	30	10	150	60 % of controls	–
CC(=O)n1nc(C(=O)Nc2c(C)cccc2Cl)cc1C [Compound 2, 3-(2-chloro 6-methylphenylcarbamoyl) 1-acetyl 5-methyl pyrazole]	100	0	80	0	350	–	–
Cc1cccc(C)c1N(C)C(=O)c1cc(C)n(C)n1 [Compound 7]	70	0	30	0	–	–	400
COc1cc(C(=O)Nc2c(C)cccc2C)nn1C [Compound 15, 3-(2,6-dimethylphenylcarbamoyl) 1-methyl 5-methoxy pyrazole]	10	0	0	10	400	21 % of controls	–
Cc1cccc(Cl)c1NC(=O)c1cc(C)n(C)n1 [Compound 5, 3-(2-chloro 6-methylphenylcarbamoyl) 1,5-dimethyl pyrazole]	100	10	40	10	500	–	–
Cc1cc(NC(=O)c2c(C)cccc2C)no1 [Compound 17]	100	0	30	20	–	–	2000
Cc1cccc(C)c1NC(=O)c1cc(COC(=O)c2ccccc2)on1 [Compound 29]	70	0	10	10	–	–	2000
CC(=O)n1nc(C(=O)Nc2c(C)cccc2C)cc1C [Compound 41]	100	0	50	0	–	–	350
Cc1cccc(C)c1C(=O)Nc1cc(C)n(C)n1 [Compound 3, N-(1,5-dimethyl-3-pyrazolyl)2,6-dimethylbenzamide]	100	0	50	0	1000	–	–
